# Laboratory results from article PMC10095864, “Targeting HIV-1 Reverse Transcriptase Using a Fragment-Based Approach” (Molecules, 2023).
# Read-outs that look alike come from different tables or passages of the source.
# Columns and labels:
# recombinant WT HIV-1 RT = target: T1, recombinant WT HIV-1 RT (Human immunodeficiency virus type 1 group M subtype B, UniProt P03367); assay: biochemical; settings: for IC50: RT Inhibition—IC50 ± SEM, WT RT DDDP activity; for Ligand efficiency (LE): binding to WT RT, LE = −1.4(logIC50)/N
# T1 construct: The p66/p51 HIV-1 RT heterodimer engineered with a N-terminal histidine tag; His tag (histidine tag) (N); made in house; host or cells: Escherichia coli strain M15 (vector pRT6H-PR)
# Protocol: (§1) The inhibitory activity of all compounds was evaluated in vitro in assays that measure the DNA-dependent DNA polymerase (DDDP) activity of HIV-1 RT. Compounds were tested against recombinant WT and drug-resistant HIV-1 RT mutants (K103N, Y181C or K103N/Y181C). […] The IC50 value of nevirapine was determined in parallel to control for the performance of the assay. […] These RT mutations either reduce the rate of entry of NNRTIs to the binding pocket (K103N) or remove aromatic interactions that favor binding (Y181C). Initially, compound IC50 values were determined in an assay that quantifies DDDP activity mediated by HIV-1 RT using a radiolabeled ^33PdTTP substrate and more recently using a nonradioactive PicoGreen-based spectrophotometric assay.
# Recombinant HIV-1 RT: The p66/p51 HIV-1 RT heterodimer engineered with a N-terminal histidine tag was expressed from the pRT6H-PR vector (provided by Nicolas Sluis-Cremer) which is based on pRT6H-PROT [37], except that the RT coding region is derived from the infectious molecular clone xxLAI [38]. This xxLAI clone contains the HIV-1LAI backbone and is engineered with silent mutations introducing Xma I and Xba I sites in the RT coding region at nucleotide positions 40–45 and 1470 to 1475, respectively. pRT6H-PR expressing the NNRTI drug-resistant mutations K103N, Y181C and K103N/Y181C were generated by subcloning Xma I/Xba I fragments in xxLAI harboring the desired NNRTI mutations (Giacobbi NS and Sluis-Cremer 2017 AAC) into the corresponding restriction sites in the RT coding region of p6HRT-PR. RT was expressed in Escherichia coli strain M15 and purified using Ni-NTA chromatography as previously described. RT concentrations were determined spectrophotometrically at 280 nm using an extinction coefficient (e280) of 260, 450 M^−1 cm^−1.
# Nevirapine was included in assays as a positive control for inhibiting RT polymerase activity. The DDDP assay was performed by first adding 25 ng of HIV-1 RT to test compound in 96-well plates followed by initiating RT polymerase activity by adding 200 ng of activated calf thymus (ACT) DNA (Sigma Aldrich), 0.2 µCi ^33P-α-dTTP (Perkin Elmer), 50 mM Tris-HCl pH 7.8 50 mM KCl, […], 50 µM dNTP mix (Bioline), 0.1 mg/mL bovine serum albumin (New England Biolabs), 0.01% IGEPAL (Sigma) and 1 mM dithiothreitol. Reactions contained 2.5% dimethyl sulfoxide (DMSO). Following incubation at 37 °C for 10 min, samples from duplicate wells were applied to Whatman DE81 ion-exchange paper (GE Healthcare); dried membranes were washed in 2X saline-sodium citrate (SSC) buffer; and incorporated counts were quantified using an FLP-2000 phosphorimager (Fujifilm) or Typhoon Trio Phosphorimager (GE Healthcare) as published. Dose–response curves were generated using PRISM GraphPad version 8 by plotting the log transformed drug concentrations against percentage inhibition of DDDP activity compared to the no drug control using non-linear regression analysis.
# Non-radioactive DDDP Assay: DDDP assays were also performed using a PicoGreen based spectrophotometric assay to detect double-stranded DNA synthesized by recombinant HIV-1 RT [15]. Assays were performed as described for the […] DDDP assay except that instead of ACT, the reaction contained 40 nM of a template/primer comprising a 200 nt DNA template (5′-[…] […]-3′) annealed to a 18 nucleotide DNA primer (5′-[…]-3′), 50 mM Tris-HCl pH 7.8, 50 mM KCl, 10 mM MgCl2 and 50 µM dNTP mix.
# HIV-1 RT Y181C mutant = target: T2, HIV-1 RT Y181C mutant (Human immunodeficiency virus type 1 group M subtype B, UniProt P03367, Y780C); assay: DDDP activity assay, Y181C RT mutant; type: biochemical; settings: PicoGreen or 33P radiolabeled assay, n ≥ 2, read-out: RT Inhibition—IC50 ± SEM, Y181C
# T2 construct: The p66/p51 HIV-1 RT heterodimer engineered with a N-terminal histidine tag; His tag (histidine tag) (N); made in house; host or cells: Escherichia coli strain M15 (vector pRT6H-PR)
# Protocol: as §1
# Recombinant HIV-1 RT: The p66/p51 HIV-1 RT heterodimer engineered with a N-terminal histidine tag was expressed from the pRT6H-PR vector (provided by Nicolas Sluis-Cremer) which is based on pRT6H-PROT [37], except that the RT coding region is derived from the infectious molecular clone xxLAI [38]. […] RT concentrations were determined spectrophotometrically at 280 nm using an extinction coefficient (e280) of 260, 450 M^−1 cm^−1.
# Nevirapine was included in assays as a positive control for inhibiting RT polymerase activity. […] Following incubation at 37 °C for 10 min, samples from duplicate wells were applied to Whatman DE81 ion-exchange paper (GE Healthcare); dried membranes were washed in 2X saline-sodium citrate (SSC) buffer; and incorporated counts were quantified using an FLP-2000 phosphorimager (Fujifilm) or Typhoon Trio Phosphorimager (GE Healthcare) as published. […]
# His-tagged HIV-1 RT WT = target: T3, His-tagged HIV-1 RT WT (Human immunodeficiency virus type 1 group M subtype B, UniProt P03367); assay: Surface plasmon resonance, WT RT; type: binding
# T3 construct: The p66/p51 HIV-1 RT heterodimer engineered with a N-terminal histidine tag; His tag (histidine tag) (N); made in house; host or cells: Escherichia coli strain M15 (vector pRT6H-PR)
# Protocol: (§2) Compound binding to recombinant HIV-1 RT was measured by surface plasmon resonance (SPR). SPR is an optical biosensor detection method that involves passing an analyte (often a fragment) in a buffer solution over a gold surface chip with an immobilized protein (RT enzyme) and detecting the change in plasmon resonance angle which is dependent on the refractive index of the medium near the surface. As compounds bind to the target protein, the refractive index changes proportionally to the extent of binding. This can then be used to measure the association and dissociation kinetics of binding as well as the compound’s affinity for binding.
# (§3) SPR assays were performed on a Biacore S200 (GE Healthcare). His-tagged RT (WT, K103N, Y181C or K103N/Y181C) was immobilized on the surface of a Biacore compatible NIHC 1500M (Xantec) chip according to manufacturer’s instructions. Following 3 injections 300 s each of 0.5 M EDTA, the chip surface was activated with a 120 s injection of 5 mM NiCl2 followed by a 2100 s injection of 130 nM RT. The final immobilization level of RT was typically 14,000–27,000 RU. SPR experiments were carried out at 25 °C using a flow rate of 50 µL/min in running buffer. The running buffer was 1.053 × (HBS pH 7.4 + 50 µM EDTA + 0.005% Tween-20). Compounds were provided as 200 mM stocks and diluted in running buffer to obtain the concentrations required for dose-response studies (0, 6.25, 12.5, 25, 50, 100 and 200 µM). Raw sensorgram data were analyzed using Biacore S200 Evaluation Software. Dose-response determinations were evaluated using a 1:1 binding model. KD values were determined by Biacore S200 Evaluation Software Version 1.0. assuming 1:1 binding. For compounds approaching saturation, Rmax was floated. For compounds with insufficient curvature, Rmax was fixed based on a control. Errors were determined as the standard error in the dose-response fit, as calculated by Biacore S200 Evaluation Software.
# [1] = target: T4, His-tagged HIV-1 RT K103N (Human immunodeficiency virus type 1 group M subtype B, UniProt P03367, K702N); assay: Surface plasmon resonance, K103N RT; settings: ± standard error of dose–response fit, n = 1; NB = no binding observed; read-out: SPR—KD, K103N
# T4 construct: The p66/p51 HIV-1 RT heterodimer engineered with a N-terminal histidine tag; His tag (histidine tag) (N); made in house; host or cells: Escherichia coli strain M15 (vector pRT6H-PR)
# Protocol: as §2, §3
# [2] = WT (PicoGreen assay), nonradioactive PicoGreen assay
# [3] = WT, PicoGreen or 33P radiolabeled assay, value not marked as PicoGreen, n ≥ 2
# [4] = read-out: SPR—KD, WT, ± standard error of dose–response fit, n = 1, NB = no binding observed
SMILES,IC50 (recombinant WT HIV-1 RT; [2]),IC50 (recombinant WT HIV-1 RT; [3]),Ligand efficiency (LE) (recombinant WT HIV-1 RT),Kd (His-tagged HIV-1 RT WT; [4]),also measured
"Cc1ccnc2c1NC(=O)c1cccnc1N2C1CC1 [Nevirapine, nevirapine, reference compound]",0.44 ± 0.03 µM,–,–,–,–
"CCOC(=O)c1cnn2cccc(C)c12 [compound 2, Ethyl 4-Methylpyrazolo[1,5-a]pyridine-3-carboxylate]",–,433 ± 166 µM,0.31 kcal/mol/HA,–,IC50 (HIV-1 RT Y181C mutant): > 333 µM; Kd (His-tagged HIV-1 RT WT): 347 ± 23 µM
"CCOC(=O)c1cnn2ccc(C)cc12 [compound 3, Ethyl 5-Methylpyrazolo[1,5-a]pyridine-3-carboxylate]",–,> 1000 µM,–,–,–
"CCOC(=O)c1cnn2cc(C)ccc12 [compound 4, Ethyl 6-Methylpyrazolo[1,5-a]pyridine-3-carboxylate]",–,> 1000 µM,–,–,–
"CCOC(=O)c1cnn2c(C)cccc12 [compound 5, Ethyl 7-Methylpyrazolo[1,5-a]pyridine-3-carboxylate]",–,470 ± 95 µM,0.31 kcal/mol/HA,> 200 µM,IC50 (HIV-1 RT Y181C mutant): > 333 µM
"CCOC(=O)c1cnn2cc(Br)ccc12 [compound 7, Ethyl 6-Bromopyrazolo[1,5-a]pyridine-3-carboxylate]",–,> 1000 µM,–,–,–
"CCOC(=O)c1cnn2c(C)ccc(Br)c12 [compound 9, Ethyl 4-Bromo-7-methylpyrazolo[1,5-a]pyridine-3-carboxylate]",155 ± 19 µM,–,0.33 kcal/mol/HA,> 200 µM,–
"CCOC(=O)c1cnn2cc(OC)cc(Br)c12 [compound 10, Ethyl 4-Bromo-6-methoxypyrazolo[1,5-a]pyridine-3-carboxylate]",315 ± 19 µM,–,0.29 kcal/mol/HA,–,Kd [1]: 757 ± 81 µM; Kd (His-tagged HIV-1 RT WT): 1570 ± 105 µM
"CCOC(=O)c1cnn2c(C)ccc(F)c12 [compound 11, Ethyl 4-Fluoro-7-methylpyrazolo[1,5-a]pyridine-3-carboxylate]",> 1000 µM,–,–,> 200 µM,–
"CCOC(=O)c1cnn2c(C)ccc(Cl)c12 [compound 12, Ethyl 4-Chloro-7-methylpyrazolo[1,5-a]pyridine-3-carboxylate]",> 1000 µM,–,–,–,–
"CCOC(=O)c1cnn2cc(Br)cc(OC)c12 [compound 13, Ethyl 6-Bromo-4-methoxypyrazolo[1,5-a]pyridine-3-carboxylate]",–,> 1000 µM,–,–,–
"CCOC(=O)c1cnn2c(C)cc(Cl)cc12 [compound 14, Ethyl 5-Chloro-7-methylpyrazolo[1,5-a]pyridine-3-carboxylate]",–,> 1000 µM,–,> 200 µM,–
